One test concerns the target T1, Human NHE-1 (Homo sapiens, UniProt P19634).
T1 construct: expressed in transfected cells; host or cells: CCL39-derived PS120 cells (PS120/NHE-1)
The test is described as follows: Inhibitory effect on NHE-1 in PS120/NHE-1 cells (recovery from intracellular acidosis, BCECF fluorescence). The test is classed as cell-based. As to conditions: human NHE-1 expressed PS120 cells; concentration at which recovery from intracellular acidosis was 50% inhibited. How it is done: The benzothiophen-2-carbonylguanidine derivatives of the present invention were examined for NHE-1 inhibitory effect in cells according to the following procedure.
Human NHE-1 was expressed in CCL39-derived PS120 cells. These human NHE-1 expressed cells were cultured in DMEM (Dulbecco's modified Eagle's medium) supplemented with 10% fetal bovine serum, 1% penicillin/streptomycin (100× solution), 1% L-glutamine (200 mM aqueous solution). The PS120/NHE-1 cells grown in 100 mm dishes were treated with trypsin at 80-90% confluency, followed by washing with PBS (phosphate buffer saline) once, and then once with an Na-free buffer (138.2 mM Choline chloride, 4.9 mM KCl, […]. 2H2O, 1.2 mM MgSO4.7H2O, 1.2 mM KH2PO4, 15 mM D-glucose, 20 mM HEPES, at pH 7.4). After centrifugation, the pellet was suspended in an Na-free buffer containing 20 mM NH4Cl and 10 μM BCECF-AM [2′,7′-bis(2-carboxyethyl)-5,6-carboxy-fluorescein acetoxymethyl ester] and incubated at 37° C. for 30 min in a CO2 incubator. After being harvested by centrifugation, the PS120/NHE-1 cells were washed once with an Na-free buffer to remove both NH4Cl and extracellular BCECF-AM, suspended at a density of 2.5×10^4 cells/10 μl and stored at 4° C. in a dark room until reuse. In each well of 96-well microplates, 180 μl of HBS (137 mM NaCl, 4.9 mM KCl, 1.5 mM CaCl2. 2H2O, 1.2 mM MgSO4.7H2O, 1.2 mM KH2PO4, 15 mM D-glucose, 20 mM HEPES, at pH 7.4) and 10 μl of DMSO or 10 μl of a solution of the compound (0.03˜10 μM) of the present invention in DMSO were placed and well mixed, after which 10 μl aliquots of the intracellular acidosis-induced PS120/NHE-1 cells were added thereto. 4 min after the cell addition, fluorescence (excitation: 485/444 nm, emission: 535 nm) was measured in the GEMINI-XS Microplate Spectrofluorometer (Molecular Devices). The fluorescence measured was converted into pH values using a high-K^+/nigericin technique. The cells in which intracellular acidosis was induced with NH4Cl prepulses, were recovered to normal pH values through the operation of NHE-1. The inhibitory effect of the compound against NHE-1 was evaluated as concentrations at which the recovery from the intracellular acidosis to a normal state was 50% inhibited (IC50 values), with cariporide used as a control.

For test [1], the system named is isolated ischemic rat heart. The test is described as follows: Cardioprotective effect in isolated ischemic rat heart model (Langendorff). As to conditions: 10 μM, 30 min global ischemia, 30 min reperfusion. How it is done: Male rats (300 450 g, the Korea Research Institute of Chemical Technology, Experimental Animal Lab) were anesthetized by intraperitoneal injection with sodium pentobarbital at a dose of 100 mg/kg and were intravenously administered with heparine at a dose of 1000 U/kg, followed by the excision of the heart. In detail, a tracheotomy was performed and a tracheal cannula (PE 240) was inserted into the trachea for subsequent artificial ventilation with room air using a rodent ventilator. […] A catheter tip manometer connected to a latex balloon filled with a mixture of ethanol and distilled water (1:1 v/v) was inserted via an incision in the left atrium into the left ventricle, and the intraventricular pressure thereof transmitted to the latex balloon was measured isovolumetrically with a transducer and recorded on a recording system (Linearcorder mark 8 WR 3500) with the aid of an amplifier (Plugsys bridge amplifier). After stabilizing the heart for 15 min, the balloon volume was adjusted to create a left ventricular end-diastolic pressure (LVEDP) of 5 mmHg during the initial baseline period. The volume of the balloon was maintained until the end of the experiment. Baseline heart contraction function, spontaneous heart rate (HR) and coronary flow (CF) were determined from the left ventricular contraction interval. The left ventricular developed pressure (LVDP), which is regarded as an index of contractile function of the isolated heart, was calculated by subtracting left ventricular end-diastolic pressure (LVEDP) from left ventricular peak systolic pressure (LVSP). In contrast to the heart in the body, the Langendorff heart cannot be measured for cardiac output and thus, RPP (rate-pressure product), which is an important indirect indicator for cardiac performance, was calculated by multiplying heart rate (HR) by LVDP. Throughout the experiment, the temperature of the heart was maintained constant by […] in a 37° C. physiological solution to which 95% O2/5% CO2 was continuously supplied. The heart thus stabilized was perfursed for 10 min with a solution of the compounds of the invention or control drugs in DMSO (dimethylsulfoxide) diluted with HBS (final DMSO conc. 0.04%), or with the solvent only (a negative control; 0.04% DMSO) and then measured again for contractile function, heart rate (HR) and coronary flow (CF). The supply of perfusates was completely stopped for 30 min in order to induce global ischemia in the heart, followed by reperfusion for 30 min. The indices (LVDP, HR, LVEDP, and CF) were measured again. After the reperfusion, the total level of lactate dehydrogenase (LDH) in the reperfusates was measured using a kit and taken as an index of ischemic myocardial injury. A negative control group was treated with the solvent only while cariporide was used as a positive control.

A value given as a limit tells only on which side of the number the result lay.

T1 sequence (P19634 whole entry): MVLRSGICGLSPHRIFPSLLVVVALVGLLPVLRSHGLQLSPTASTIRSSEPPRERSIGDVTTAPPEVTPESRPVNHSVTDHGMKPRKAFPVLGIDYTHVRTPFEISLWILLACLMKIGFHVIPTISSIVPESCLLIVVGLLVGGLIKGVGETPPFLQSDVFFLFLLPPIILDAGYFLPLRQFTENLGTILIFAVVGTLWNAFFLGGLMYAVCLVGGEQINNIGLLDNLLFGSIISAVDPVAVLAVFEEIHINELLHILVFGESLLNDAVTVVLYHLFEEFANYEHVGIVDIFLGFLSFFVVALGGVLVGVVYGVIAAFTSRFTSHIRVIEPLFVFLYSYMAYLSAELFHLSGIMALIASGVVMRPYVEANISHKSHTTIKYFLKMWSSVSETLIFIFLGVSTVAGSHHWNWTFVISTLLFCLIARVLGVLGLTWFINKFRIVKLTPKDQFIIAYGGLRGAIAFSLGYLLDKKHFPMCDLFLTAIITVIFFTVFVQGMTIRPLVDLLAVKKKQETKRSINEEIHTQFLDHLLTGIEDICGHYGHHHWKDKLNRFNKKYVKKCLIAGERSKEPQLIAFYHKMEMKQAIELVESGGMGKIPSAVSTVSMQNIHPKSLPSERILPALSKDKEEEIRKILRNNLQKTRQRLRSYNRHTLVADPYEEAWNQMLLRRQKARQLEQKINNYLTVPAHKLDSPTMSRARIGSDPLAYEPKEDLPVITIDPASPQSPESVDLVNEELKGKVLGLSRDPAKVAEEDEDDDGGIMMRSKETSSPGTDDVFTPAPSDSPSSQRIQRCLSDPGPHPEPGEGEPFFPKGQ

In the case of `CS(=O)(=O)O.NC(N)=NC(=O)c1cc2c(Cl)cccc2s1` [Example 32, (4-Chlorobenzothiophene-2-Carbonyl)Guanidine Methanesulfonate], the IC50 – broadly, the point on the concentration scale where inhibition reaches its midpoint – on Human NHE-1 is 0.2 µM. Besides, in test [1], the “LDH (free LDH level upon reperfusion)” value is 8.8 u/g, the “LVEDP (left ventricular end-diastolic pressure)” value (from here on “LVEDP”) was determined as 25.3 mmHg and the “RPP (rate-pressure product (LVDP × HR) % relative to the value before ischemia induction)” value is recorded as 60.8%.
With `C=Cc1cccc2sc(C(=O)N=C(N)N)cc12.CS(=O)(=O)O` [Example 36, (4-Vinylbenzothiophene-2-Carbonyl)Guanidine Methanesulfonate], on Human NHE-1, the midpoint of inhibition, the IC50, lay at 0.31 µM. Moreover, in test [1], the “LDH (free LDH level upon reperfusion)” value stood at 13.1 u/g, the “LVEDP” value worked out at 42.0 mmHg and the “RPP (rate-pressure product (LVDP × HR) % relative to the value before ischemia induction)” value worked out at 51.0%.
For the compound `CS(=O)(=O)O.NC(N)=NC(=O)c1cc2c(-c3cc(Cl)cc(Cl)c3)cccc2s1` [Example 19, [4-(3,5-Dichlorophenyl)Benzothiophene-2-Carbonyl]Guanidine Methanesulfonate], 0.68 µM corresponded to half-maximal inhibition against Human NHE-1 (IC50). Moreover, in test [1], the “LVEDP” value was 64.4 mmHg and the “RPP (rate-pressure product (LVDP × HR) % relative to the value before ischemia induction)” value was 19.1%.
As to `N=C(N)NC(=O)c1cc2c(I)cccc2s1` [Example 34, (4-Iodobenzothiophene-2-Carbonyl)Guanidine Methanesulfonate], the IC50 against Human NHE-1 was < 0.5 µM. Moreover, in test [1], the “LDH (free LDH level upon reperfusion)” value came out at 7.1 u/g, the “LVEDP” value was determined as 19.0 mmHg and the “RPP (rate-pressure product (LVDP × HR) % relative to the value before ischemia induction)” value is listed as 65.8%.
On to `CS(=O)(=O)O.NC(N)=NC(=O)c1cc2c(F)cccc2s1` [Example 33, (4-Fluorobenzothiophene-2-Carbonyl)Guanidine Methanesulfonate], for which the half-inhibitory concentration (IC50) on Human NHE-1 worked out at 1.73 µM. Besides, in test [1], the “LDH (free LDH level upon reperfusion)” value stood at 7.0 u/g, the “LVEDP” value is 37.7 mmHg and the “RPP (rate-pressure product (LVDP × HR) % relative to the value before ischemia induction)” value stood at 46.6%.
In turn, `CS(=O)(=O)O.NC(N)=NC(=O)c1cc2c(Br)cccc2s1` [Example 1, (4-Bromobenzothiophene-2-Carbonyl)Guanidine Methanesulfonate] had an IC50 on Human NHE-1 of 0.2 µM. Besides, in test [1], the “LVEDP” value is 34.0 mmHg and the “RPP (rate-pressure product (LVDP × HR) % relative to the value before ischemia induction)” value is 54.7%.
Consider `CS(=O)(=O)O.Cc1cccc2sc(C(=O)N=C(N)N)cc12` [Example 35, (4-Methylbenzothiophene-2-Carbonyl)Guanidine Methanesulfonate], for which the IC50 against Human NHE-1 worked out at 0.48 µM. For the same compound, in test [1], the “LVEDP” value is recorded as 38.0 mmHg and the “RPP (rate-pressure product (LVDP × HR) % relative to the value before ischemia induction)” value is reported as 40.4%.
Regarding `Cc1ccc(C)c(-c2cccc3sc(C(=O)N=C(N)N)cc23)c1` [Example 31, [4-(2,5-Dimethylphenyl)Benzothiophene-2-Carbonyl]Guanidine Methanesulfonate], on Human NHE-1, the IC50 came out at 10.1 µM.
Still for that read-out and setting: the figure for `C=Cc1cccc2sc(C(=O)NC(=N)N)cc12` [Example 36, (4-Vinylbenzothiophene-2-Carbonyl)Guanidine Methanesulfonate] is < 0.5 µM; for `N=C(N)NC(=O)c1cc2c(-c3cccc(Cl)c3)cccc2s1` [Example 3, [4-(3-Chlorophenyl)Benzothiophene-2-Carbonyl]Guanidine Methanesulfonate] it is < 3 µM.
`CS(=O)(=O)O.Cc1ccc2sc(C(=O)N=C(N)N)cc2c1Br` [Example 45, (4-Bromo-5-Methylbenzothiophene-2-Carbonyl)Guanidine Methanesulfonate] gave an IC50 against Human NHE-1 of 0.29 µM. Further, in test [1], the “LDH (free LDH level upon reperfusion)” value worked out at 22.5 u/g, the “LVEDP” value was 41.8 mmHg and the “RPP (rate-pressure product (LVDP × HR) % relative to the value before ischemia induction)” value is listed as 50.4%.
As for `N=C(N)NC(=O)c1cc2ccccc2s1` [Example 44, (Benzothiophene-2-Carbonyl)Guanidine Methanesulfonate], the IC50 on Human NHE-1 is 11.7 µM.
The same measure, in the same setting: the result for `Cc1cccc(-c2cccc3sc(C(=O)N=C(N)N)cc23)c1` [Example 9, [4-(3-Methylphenyl)Benzothiophene-2-Carbonyl]Guanidine Methanesulfonate] reads 3.37 µM.
As for `CS(=O)(=O)O.Cc1ccc2sc(C(=O)N=C(N)N)cc2c1C` [Example 47, (4,5-Dimethylbenzothiophene-2-Carbonyl)Guanidine Methanesulfonate], the IC50 on Human NHE-1 came to 0.75 µM. Also, in test [1], the “LDH (free LDH level upon reperfusion)” value is 21.2 u/g, the “LVEDP” value is recorded as 25.0 mmHg and the “RPP (rate-pressure product (LVDP × HR) % relative to the value before ischemia induction)” value was 59.3%.
Regarding `NC(N)=NC(=O)c1cc2c(-c3cc(Cl)ccc3Cl)cccc2s1` [Example 20, [4-(2,5-Dichlorophenyl)Benzothiophene-2-Carbonyl]Guanidine], the IC50 on Human NHE-1 was > 30 µM.
As for `N=C(N)NC(=O)c1cc2c(-c3ccccc3Cl)cccc2s1` [Example 2, [4-(2-Chlorophenyl)Benzothiophene-2-Carbonyl]Guanidine Methanesulfonate], the midpoint of inhibition against Human NHE-1, the IC50, lay at 4.15 µM.
In turn, `CS(=O)(=O)O.NC(N)=NC(=O)c1cc2c([N+](=O)[O-])cccc2s1` [Example 39, (4-Nitrobenzothiophene-2-Carbonyl)Guanidine Methanesulfonate] registered an IC50 on Human NHE-1 of 2.34 µM. In test [1], the “LDH (free LDH level upon reperfusion)” value is on record as 10.8 u/g, the “LVEDP” value was 11.3 mmHg and the “RPP (rate-pressure product (LVDP × HR) % relative to the value before ischemia induction)” value amounted to 73.3%.
On the same counts, the results for `CS(=O)(=O)O.NC(N)=NC(=O)c1cc2c(-c3ccc(F)c(Cl)c3)cccc2s1` [Example 23, [4-(3-Chloro-4-Fluorophenyl)Benzothiophene-2-Carbonyl]Guanidine Methanesulfonate] are 2.48 µM, 8.8 u/g, 68.0 mmHg and 5.9%.

These data come from patent US8143307B2, “Benzothiophen-2-carbonylguanidine derivatives, preparation thereof, and pharmaceutical composition containing the same” (Korea Research Institute of Chemical Technology, priority 2004, dated 2012).
